# Key:
# [1] = test system: Th1- and Th2-related chemokines; settings: upon stimulation; Kuo et al. 2019; cited from earlier work
# [2] = test system: IL-8 levels and neutrophil accumulation and activation; settings: refractory asthma patients; Simpson et al. 2008; cited from earlier work
# [3] = test system: liver enzymes AST and ALT; assay: Liver transaminases AST/ALT after rAAV-Luc, tetracycline pretreatment (Example 2); assay type: in vivo, piglets; settings: 25 mg/kg/day tetracycline i.v. 4 hours prior to 2×10^12 particles rAAV-Luc
# Protocol: (§1) The effect of antibiotic pretreatment on the rAAV particle-induced toxicity e.g., inflammatory response and liver enzyme levels (e.g., toxicity) is examined by measuring levels of endogenous cytokines and liver enzymes AST and ALT in animals injected with rAAV8-Luc particles operably encoding luciferase nucleic acid.
# (§2) Female piglets (n=5) are injected intravenously with either PBS alone (antibiotic control) or 25 mg/kg/day tetracycline in PBS 4 hours prior to intravenous administration of PBS alone (viral control) or 2×10^12 particles of rAAV-Luc vector. Small amounts of blood are collected aseptically obtained through the jugular vein at 30 minutes, 60 minutes, 90 minutes, 120 minutes, 1 day, 3 days, 10 days, 21 days, 28 days, 42 days, 60 days post-rAAV-Luc treatment, and serum is isolated. The serum is then analyzed for an inflammatory cytokine profile using the BD™ Cytometric Bead Array Mouse Inflammation Kit (BD™ CBA Mouse Inflammation Kit, BD Biosciences), specifically measuring levels of IL-2, IL-6, IL-7, IL-10, MCP-I, IFNγ, IP-10 and MIG. Liver transaminases e.g., AST and ALT are also measured at the above mentioned timepoints.
# [4] = test system: liver transaminases AST and ALT; assay: Liver transaminases AST/ALT after rAAV-Luc, tapering prednisone and tetracycline (Example 3); assay type: in vivo, piglets; settings: tetracycline 5-50 mg/kg/day, alone or with tapering prednisone from 25 mg/kg
# Protocol: The effect of antibiotic treatment on rAAV particle-induced toxicity is examined by measuring levels of endogenous cytokines and liver transaminases e.g., AST and ALT in animals injected with rAAV-Luc particles operably encoding luciferase nucleic acid.
# Female piglets (n=5) are pretreated with 25 mg/kg/day prednisolone 24 hours prior to rAAV8-luc (2×10^12 particles of rAAV-Luc particles) administration and then continued for 4 weeks. Then each week the prednisone is tapered by 5 mg/kg until no prednisone and continued for 15 weeks post AAV administration (2×10^12 particles per piglet). Tetracycline is then administered at 15 mg/kg/day for 16-24 weeks. Small amounts of blood are collected aseptically obtained through the jugular vein at 2 hrs, 4 hrs, 1 day, 3 days, 10 days, 21 days, 4 weeks, 8 weeks, 15 weeks, 24 weeks post-rAAV-Luc treatment, post-rAAV-Luc treatment, and serum is isolated.
# [5] = test system: IL-2, IL-6, IL-7, IL-10, MCP-I, IFNγ, IP-10 and MIG; assay: Serum inflammatory cytokine profile after rAAV-Luc, tetracycline pretreatment (Example 2); assay type: in vivo, piglets
# Protocol: as §1, §2
smiles,measurement,setting,value
CC[C@H]1OC(=O)[C@H](C)[C@@H](O[C@H]2C[C@@](C)(OC)[C@@H](O)[C@H](C)O2)[C@H](C)[C@@H](O[C@@H]2O[C@H](C)C[C@H](N(C)C)[C@H]2O)[C@](C)(O)C[C@@H](C)CN(C)[C@H](C)[C@@H](O)[C@]1(C)O [Azithromycin],effect on Th1- and Th2-related chemokines,[1],suppress Th1- and Th2-related chemokines
"CC[C@H]1OC(=O)[C@H](C)[C@@H](O[C@H]2C[C@@](C)(OC)[C@@H](O)[C@H](C)O2)[C@H](C)[C@@H](O[C@@H]2O[C@H](C)C[C@H](N(C)C)[C@H]2O)[C@](C)(OC)C[C@@H](C)C(=O)[C@H](C)[C@@H](O)[C@]1(C)O [clarithromycin, Clarithromycin]",effect on IL-8 levels and neutrophil accumulation and activation,[2],modulate IL-8 levels and Neutophil accumulation and activation
"CN(C)[C@@H]1C(O)=C(C(N)=O)C(=O)[C@@]2(O)C(O)=C3C(=O)c4c(O)cccc4[C@@](C)(O)[C@H]3C[C@@H]12 [tetracycline, Tetracycline]",AST/ALT ratio with time,[3],less than 1
same,AST/ALT levels vs control piglets,[4],decreased significantly
same,inflammatory response (cytokine levels) resulting from rAAV-Luc vs antibiotic control,[5]; 25 mg/kg/day tetracycline i.v. 4 hours prior to 2×10^12 particles rAAV-Luc i.v.,significantly reduce
same,"inflammatory response, tetracycline followed by PBS alone","[5]; 25 mg/kg/day tetracycline i.v., no vector",no inflammatory response

# From patent publication US20230149428A1, “METHOD OF TREATING GENE THERAPY ASSOCIATED TOXICITY WITH ANTIBIOTICS” (Asklepios BioPharmaceutical, Inc., priority 2020, published 2023)
